Legend:
Assay type in all cases: in vivo
[1] = test system: Yellow Fever Mosquito (Aedes aegypti, AEDSAE); conditions: Yellow Fever Mosquito, Table ABC / ABC-DP rating
Method in brief: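 Compounds from DMSO master plates (4000 ppm stock) diluted in 90:10 water/acetone, then dispensed into six replicate plates and infested with ~1-day-old Aedes aegypti larvae in liver-powder water. Held covered at room temperature for 3 days; each well scored for larval mortality and graded on a rating scale.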

[2] = test system: Beet Armyworm (Spodoptera exigua, LAPHEG); assay: Bioassays on Beet Armyworm (BAW), 128-well diet tray assay; conditions: Spodoptera exigua; Beet Armyworm, Table ABC / ABC-DP rating; read-out: BAW rating
Method in brief: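 One to five second-instar larvae per well on artificial diet surface-treated with 50 μg/cm^2 test molecule (applied in 90:10 acetone-water, dried), eight wells per compound. Trays held vented at 25° C., 14:10 light-dark for five to seven days; percent mortality averaged over the eight wells.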

[3] = test system: Cabbage Looper (Trichoplusia ni, TRIPNI); assay: Bioassays on Cabbage Looper (CL), 128-well diet tray assay; conditions: Trichoplusia ni; Cabbage Looper, Table ABC / ABC-DP rating; read-out: CL rating
Method in brief: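 Second-instar larvae (1–5 per well) placed on artificial diet surface-treated with 50 μg/cm^2 test molecule applied in 90:10 acetone-water and dried. Held at 25° C., 14:10 light-dark, for five to seven days. Percent mortality scored per well and averaged over eight wells.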

Row | Structure (SMILES) | YFM rating [1] | pest or weed control at 50 µg/cm2 [2] [%] | pest or weed control at 50 µg/cm2 [3] [%]
1 | O=C(Nc1ccc(F)c(NC(=O)C2CCCO2)c1F)c1cc(NC(=O)[C@H]2[C@H](c3cc(C(F)(F)F)cc(C(F)(F)F)c3)C2(Cl)Cl)ccc1Cl (relative stereo) [F1805, trans-N-(3-(5-(3-(3,5-bis(Trifluoromethyl)phenyl)-2,2-dichlorocyclopropane-1-carboxamido)-2-chlorobenzamido)-2,6-difluorophenyl)tetrahydrofuran-2-carboxamide] | A (80–100) | 50 to 100 | 50 to 100
2 | CCCC(=O)Nc1c(F)ccc(NC(=O)c2cc(NC(=O)[C@H]3[C@H](c4cc(C(F)(F)F)cc(C(F)(F)F)c4)C3(Cl)Cl)ccc2Cl)c1F (relative stereo) [F1806, trans-5-(3-(3,5-bis(Trifluoromethyl)phenyl)-2,2-dichlorocyclopropane-1-carboxamido)-N-(3-butyramido-2,4-difluorophenyl)-2-chlorobenzamide] | A (80–100) | 50 to 100 | 50 to 100
3 | O=C(Nc1ccc(F)c(NC(=O)C(F)(F)C(F)(F)C(F)(F)F)c1F)c1cc(NC(=O)[C@H]2[C@H](c3cc(C(F)(F)F)cc(C(F)(F)F)c3)C2(Cl)Cl)ccc1Cl (relative stereo) [F1825, trans-5-(3-(3,5-bis(Trifluoromethyl)phenyl)-2,2-dichlorocyclopropane-1-carboxamido)-2-chloro-N-(2,4-difluoro-3-(2,2,3,3,4,4,4-heptafluorobutanamido)phenyl)benzamide] | A (80–100) | 50 to 100 | 50 to 100
4 | O=C(NCC(F)(F)F)c1cc(NC(=O)[C@H]2[C@H](c3cc(C(F)(F)F)ccc3Cl)C2(Cl)Cl)ccc1Cl (relative stereo) [F2001, trans-2-Chloro-5-(2,2-dichloro-3-(2-chloro-5-(trifluoromethyl)phenyl)-cyclopropane-1-carboxamido)-N-(2,2,2-trifluoroethyl)benzamide] | A (80–100) | 50 to 100 | 50 to 100
5 | O=C(NCC(F)(F)F)c1cc(NC(=O)[C@H]2[C@H](c3c(F)c(F)c(F)c(F)c3F)C2(Cl)Cl)ccc1Cl (relative stereo) [F2002, trans-2-Chloro-5-(2,2-dichloro-3-(perfluorophenyl)cyclopropane-1-carboxamido)-N-(2,2,2-trifluoroethyl)benzamide] | A (80–100) | 50 to 100 | 50 to 100
6 | O=C(NCC(F)(F)F)c1cc(NC(=O)[C@H]2[C@H](c3cc(F)c(F)c(Br)c3)C2(Cl)Cl)ccc1Cl (relative stereo) [F2003, trans-5-(3-(3-Bromo-4,5-difluorophenyl)-2,2-dichlorocyclopropane-1-carboxamido)-2-chloro-N-(2,2,2-trifluoroethyl)benzamide] | A (80–100) | 50 to 100 | 50 to 100
7 | O=C(NCC(F)(F)F)c1cc(NC(=O)[C@H]2[C@@H](c3cc(F)c(F)c(Br)c3)C2(Cl)Cl)ccc1Cl (relative stereo) [F2004, cis-5-(3-(3-Bromo-4,5-difluorophenyl)-2,2-dichlorocyclopropane-1-carboxamido)-2-chloro-N-(2,2,2-trifluoroethyl)benzamide] | A (80–100) | 50 to 100 | 50 to 100
8 | O=C(NCC(F)(F)C(F)(F)F)c1c(Cl)ccc(NC(=O)[C@H]2[C@H](c3ccc(F)c(Cl)c3)C2(Cl)Cl)c1Cl (relative stereo) [F2005, trans-2,6-Dichloro-3-(2,2-dichloro-3-(3-chloro-4-fluorophenyl)cyclopropane-1-carboxamido)-N-(2,2,3,3,3-pentafluoropropyl)benzamide] | A (80–100) | 50 to 100 | 50 to 100
9 | O=C(NCC(F)(F)F)c1cc(NC(=O)[C@H]2[C@H](c3cc(F)c(Cl)c(Cl)c3)C2(Cl)Cl)ccc1Cl (relative stereo) [F2006, trans-2-Chloro-5-(2,2-dichloro-3-(3,4-dichloro-5-fluorophenyl)cyclopropane-1-carboxamido)-N-(2,2,2-trifluoroethyl)benzamide] | A (80–100) | 50 to 100 | 50 to 100
10 | O=C(NCC(F)(F)F)c1cc(NC(=O)[C@H]2[C@@H](c3cc(F)c(Cl)c(Cl)c3)C2(Cl)Cl)ccc1Cl (relative stereo) [F2007, cis-2-Chloro-5-(2,2-dichloro-3-(3,4-dichloro-5-fluorophenyl)cyclopropane-1-carboxamido)-N-(2,2,2-trifluoroethyl)benzamide] | A (80–100) | 50 to 100 | 50 to 100
11 | O=C(NCC(F)(F)F)c1cc(NC(=O)[C@H]2[C@H](c3cc(Br)cc(S(F)(F)(F)(F)F)c3)C2(Cl)Cl)ccc1Cl (relative stereo) [F2008, trans-5-(3-(3-Bromo-5-(pentafluoro-λ^6-sulfanyl)phenyl)-2,2-dichlorocyclopropane-1-carboxamido)-2-chloro-N-(2,2,2-trifluoroethyl)benzamide] | A (80–100) | 50 to 100 | 50 to 100
12 | O=C(NCC(F)(F)F)c1cc(NC(=O)[C@H]2[C@@H](c3ccc(F)c(Cl)c3F)C2(Cl)Cl)ccc1Cl (relative stereo) [F2010, cis-2-Chloro-5-(2,2-dichloro-3-(3-chloro-2,4-difluorophenyl)cyclopropane-1-carboxamido)-N-(2,2,2-trifluoroethyl)benzamide] | A (80–100) | 50 to 100 | 50 to 100
13 | O=C(NCC(F)(F)F)c1cc(NC(=O)[C@H]2[C@H](c3cc(C(F)(F)F)cc(Cl)c3F)C2(Cl)Cl)ccc1Cl (relative stereo) [F2012, trans-2-Chloro-5-(2,2-dichloro-3-(3-chloro-2-fluoro-5-(trifluoromethyl)phenyl)cyclopropane-1-carboxamido)-N-(2,2,2-trifluoroethyl)benzamide] | A (80–100) | 50 to 100 | 50 to 100
14 | O=C(NCC(F)(F)F)c1cc(NC(=O)[C@H]2[C@@H](c3cc(C(F)(F)F)cc(Cl)c3F)C2(Cl)Cl)ccc1Cl (relative stereo) [F2013, cis-2-Chloro-5-(2,2-dichloro-3-(3-chloro-2-fluoro-5-(trifluoromethyl)phenyl)cyclopropane-1-carboxamido)-N-(2,2,2-trifluoroethyl)benzamide] | A (80–100) | 50 to 100 | 50 to 100
15 | Cc1cc([C@H]2[C@H](C(=O)Nc3ccc(Cl)c(C(=O)NCC(F)(F)F)c3)C2(Cl)Cl)cc(C(F)(F)F)c1F (relative stereo) [F2014, trans-2-Chloro-5-(2,2-dichloro-3-(4-fluoro-3-methyl-5-(trifluoromethyl)phenyl)-cyclopropane-1-carboxamido)-N-(2,2,2-trifluoroethyl)benzamide] | A (80–100) | 50 to 100 | 50 to 100
16 | Cc1cc([C@@H]2[C@H](C(=O)Nc3ccc(Cl)c(C(=O)NCC(F)(F)F)c3)C2(Cl)Cl)cc(C(F)(F)F)c1F (relative stereo) [F2015, cis-2-Chloro-5-(2,2-dichloro-3-(4-fluoro-3-methyl-5-(trifluoromethyl)phenyl)-cyclopropane-1-carboxamido)-N-(2,2,2-trifluoroethyl)benzamide] | A (80–100) | 50 to 100 | 50 to 100
17 | O=C(NCC(F)(F)C(F)(F)F)c1c(F)ccc(NC(=O)[C@H]2[C@H](c3ccc(F)c(Cl)c3)C2(Cl)Cl)c1F (relative stereo) [F2018, trans-3-(2,2-Dichloro-3-(3-chloro-4-fluorophenyl)cyclopropane-1-carboxamido)-2,6-difluoro-N-(2,2,3,3,3-pentafluoropropyl)benzamide] | A (80–100) | 50 to 100 | 50 to 100
18 | CCNC(=O)c1c(Cl)ccc(NC(=O)[C@H]2[C@H](c3ccc(F)c(Cl)c3)C2(Cl)Cl)c1Cl (relative stereo) [F2019, trans-2,6-Dichloro-3-(2,2-dichloro-3-(3-chloro-4-fluorophenyl)cyclopropane-1-carboxamido)-N-ethylbenzamide] | A (80–100) | 50 to 100 | 50 to 100
19 | CCCNC(=O)c1c(Cl)ccc(NC(=O)[C@H]2[C@H](c3ccc(F)c(Cl)c3)C2(Cl)Cl)c1Cl (relative stereo) [F2022, trans-2,6-Dichloro-3-(2,2-dichloro-3-(3-chloro-4-fluorophenyl)cyclopropane-1-carboxamido)-N-propylbenzamide] | A (80–100) | 50 to 100 | 50 to 100
20 | O=C(NCCC(F)(F)F)c1c(F)ccc(NC(=O)[C@H]2[C@H](c3ccc(F)c(Cl)c3)C2(Cl)Cl)c1F (relative stereo) [F2023, trans-3-(2,2-Dichloro-3-(3-chloro-4-fluorophenyl)cyclopropane-1-carboxamido)-2,6-difluoro-N-(3,3,3-trifluoropropyl)benzamide] | A (80–100) | 50 to 100 | 50 to 100

— patent US20250228239A1, “MOLECULES HAVING PESTICIDAL UTILITY, AND INTERMEDIATES, COMPOSITIONS, AND PROCESSES, RELATED THERETO” (priority 2024, published 2025)
